Measurements published in US12564585B2, “Nutraceuticals having sustained release for improved bioavailability and method of production” (BioActives LLC, priority 2013, dated 2026).

What was measured:
[1] = Resveratrol-SR dissolution test (SGF then SIF); format: physicochemical; conditions: sink conditions, SGF 2 hr then SIF pH 6.5, 25 mg Resveratrol
Description: The in vitro dissolution study was performed using the Varian 7020 dissolution tester with the basket configuration at 37° C., 100 rpm. The samples equivalent to 25 mg Resveratrol filled in hard gelatin capsules were used for the study. The capsules were introduced into 750 ml of 0.1N HCl (simulated gastric fluid without enzymes, SGF) maintained at 37° C. […] The removed volume was replaced each time with fresh medium. […] Polysorbate 80 dissolved in 55 ml of water was added to a concentration of 0.25% to simulate intestinal fluid. Aliquots were withdrawn at 4, 6, 9, and 12 hrs for analysis as described before and the removed volume was replaced with fresh medium each time. The aliquots were diluted with methanol for HPLC analysis. Resveratrol was quantified using reverse-phase HPLC on a Phenomenex Prodigy column (250×4.6 mm, 5 μm) at room temperature. The samples were eluted using an isocratic mobile phase consisting of 5% acetic acid/55% and methaniol/45%. The flow rate was 1 ml/min and detection wavelength was 306 nm. The retention time for Resveratrol was 7.5 min under these conditions. Standard Resveratrol from Sigma was used for calibration.

[2] = Resveratrol-SR bioavailability pilot human uptake study; format: in vivo; conditions: plasma free Resveratrol, 500 mg oral, 0-24 hr
Description: Resveratrol-SR formulation and 98% Resveratrol powder equivalent to 500 mg Resveratrol were used for the study. The samples were provided in hard gelatin capsules. The crossover study was done using two healthy subjects who were not consuming Resveratrol supplements. The subjects were asked not to consume Resveratrol containing foods, such as, peanuts grapes and wine, for 48 hours before the study. On the day of the study, 7 ml of blood was collected in EDTA tubes to permit establishment of baseline value. Resveratrol-SR capsules were administered after breakfast and blood samples were drawn as before at 1, 2, 4, 7, 9, and 24 his post-dose. The samples were stored on ice protected from light and the plasma was separated by centrifugation within 1 hr of collection and stored at −70° C. until analysis. After a 7-day washout period the protocol was repeated for the control Resveratrol powder capsules. Plasma total Resveratrol (Resveratrol conjugates and free Resveratrol) and free Resveratrol were determined based on the method described by Meng et al. (Urinary and plasma levels of resveratrol and quercetin in humans, mice and rats after ingestion of pure compounds and grape juice, J. Agric. Food Chem., 52: 935-942, 2004). […] Resveratrol was quantified using reverse-phase HPLC as described above.

[3] = Curcumin-SR dissolution test (SGF then SIF); format: physicochemical; conditions: simulated gastric and intestinal fluids
Description: The in vitro dissolution study was performed using the Varian 7020 dissolution tester with the basket configuration at 37° C., 100 rpm. The samples equivalent to 25 mg Curcumin filled in hard gelatin capsules were used for the study. The capsules were introduced into 750 ml of 0.1N HCl (simulated gastric fluid without enzymes, SGF) maintained at 37° C. At the end of 1 and 2 hrs, 3 ml of the sample was withdrawn and filtered through 10μ-syringe filter. The removed volume was replaced each time with fresh medium. At the end of 2 hr, the pH of the medium was adjusted to 6.5 (simulated intestinal fluid without enzymes, SIF) with 195 ml of 0.2M tribasic sodium phosphate solution equilibrated to 37° C. Polysorbate 80 dissolved in 55 ml of water was added to a concentration of 0.25% to simulate intestinal fluid. Aliquots were withdrawn at 4, 6, 9, and 12 hrs for analysis, as described before, and the removed volume was replaced with fresh medium each time. The aliquots were diluted with methanol for the HPLC analysis of Curcumin. Curcumin was quantified using reverse-phase HPLC on a Phenomenex Luna column (150×4.6 mm, 5 μm) at room temperature. The samples were eluted using an isocratic mobile phase consisting of 5% acetic acid/45% and acetronitrile/55%. The flow rate was 1 ml/min and detection wavelength was 420 nm. Standard Curcumin from Chromadex was used for quantification. […]

[4] = Curcumin-SR bioavailability pilot human uptake study; format: in vivo; conditions: plasma Curcumin, 250 mg total Curcuminoids oral, 0-9 hr
Description: (§1) Curcumin-SR formulation and Curcumin powder equivalent to 250 mg total Curcuminoids were used for the study. The samples were provided in hard gelatin capsules. The crossover study was done using two healthy subjects who were not using curcumin in their food preparations or consuming Curcumin supplements. On the day of the study, 7 ml of blood was collected in EDTA tubes to permit establishment of baseline value. Curcumin-SR capsules were administered after breakfast and blood samples were drawn as before at 1, 2, 4, 7, and 9 hrs post-dose. The samples were stored on ice protected from light and the plasma was separated by centrifugation within 1 hr of collection and stored at −70° C. until analysis. After a 7-day washout period the protocol was repeated for the control Curcumin powder capsules.
Hydrolysis of Curcumin conjugates and extraction of Curcumin from the plasma were done based on the method described by Vareed et at. (Pharamcokinetics of curcumin conjugate metabolites in healthy human subjects, Cancer Epidemiol Biomarkers, 17: 1411-1417, 2008). One ml of the plasma was incubated with 2000 units of β-glucuronidase and 260 units sulfatase at 37° C. for 3.5 hrs. The samples were extracted three times with ethyl acetate/methanol (95:5) and the solvents were evaporated under nitrogen protected from light. […] Curcumin was quantified using reverse-phase HPLC as described above.

[5] = PQQ-SR dissolution test (SGF then SIF); format: physicochemical; conditions: SGF 2 hr then SIF pH 6.5, 20 mg PQQ
Description: The in vitro dissolution study was performed using the Varian 7020 dissolution tester with the basket configuration at 37° C., 100 rpm. The samples equivalent to 20 mg PQQ filled in hard gelatin capsules were used for the study. The capsules were introduced into 750 ml of 0.1N HCl (simulated gastric fluid without enzymes, SGF) maintained at 37° C. At the end of 1 and 2 hrs, 2 ml of the sample was withdrawn and filtered through 10μ-syringe filter. The removed volume was replaced each time with fresh medium. PQQ was determined by spectrophotometry at 330 nm.
At the end of 2 hr, the pH of the medium was adjusted to 6.5 (Simulated intestinal fluid without enzymes, SIF) with an appropriate amount of 0.2M tribasic sodium phosphate solution equilibrated to 37° C., Polysorbate 80 at 0.25% (simulating fed state) dissolved in water was added to the medium. Aliquots were withdrawn at 4, 6, 9, and 12 hrs for analysis as described before and the removed volume was replaced with fresh medium each time.

[6] = PQQ-SR bioavailability pilot human uptake study; format: in vivo; conditions: free plasma PQQ
Description: as §1, with “PQQ-SR” for “Curcumin-SR”, “PQQ” for “Curcumin”, “40” for “250”, “PQQ” for “total Curcuminoids”, “subjects.” for “subjects who were not using curcumin in their food preparations or consuming Curcumin supplements.”
Plasma PQQ was extracted using n-butanol and HCl followed by SepPak C-18 clean up of the extract as described by Suzuki et al. (Extractions of pyrroloquinoline quinone from crude biological samples, Suzuki, O., et al., Life Sci., 47: 2135-41, 1990). PQQ was estimated by using the enzymatic method as described by Geiger and Gorisch (Enzymatic determination of pyrroloquinoline quinone using crude membranes from E. coli, Geiger, O. and Gorisch, H., Anal Biochem., 164: 418-23, 1987). The method measures only the free PQQ in the plasma.

[7] = human studies, background; cited from earlier work

## Oc1ccc(/C=C/c2cc(O)cc(O)c2)cc1 [Resveratrol powder, 3,4′,5-trihydroxy-trans-stilbene]
[1]
  dissolution of dose in 4 hours: 100%
[2]
  average area under the curve AUC0-24hr for free Resveratrol: 2290 ng·h/mL

## COc1cc(/C=C/C(=O)CC(=O)/C=C/c2ccc(O)c(OC)c2)ccc1O [Curcumin powder, Curcumin]
[3]
  dissolution profile in words: very little is micronized or released at the gastric pH
[4]
  average area under the curve AUC0-9hr: 47.78 ng·h/mL

## O=C(O)c1cc(C(=O)O)c2c(n1)C(=O)C(=O)c1cc(C(=O)O)[nH]c1-2 [control PQQ powder, Pyrroloquinoline quinone]
[5]
  dose in solution by 4 hrs: 100%
[6]
  time by which plasma level reached near baseline: ≤ 9 h
[6]; 40 mg oral, 0-9 hr
  average area under the curve AUC0-9hr: 31.41 ng·h/mL
[6]; human, 40 mg PQQ oral, two healthy subjects
  Tmax: 2 h
[7]
  time after ingestion at which maximum plasma level was reached: 2 h
  time by which levels reached baseline: ≤ 8 h
